Experimental data as given in patent US11655235B2, “Pyrrolidine and piperidine compounds” (YUHAN CORPORATION, priority 2019, dated 2023).

Assays:
Assay type in all cases: biochemical
[1] = biological target: T1, recombinant human DPP7 (Homo sapiens, UniProt Q9UHL4); assay: DPP7 inhibition, fluorogenic substrate Lys-Pro-AMC; conditions: recombinant human DPP7
T1 construct: purchased R&D Systems
In short: (§1)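 Inhibitors are titrated in an 8-point series into the enzyme's assay buffer (DMSO no more than 0.5%). Substrate cleavage at 25 °C is followed by fluorescence, excitation 380 nm and emission 460 nm. IC50 values come from a four-variable logistic model.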

[2] = biological target: T2, recombinant human DPP9 (Homo sapiens, UniProt Q86TI2); assay: DPP9 inhibition, fluorogenic substrate H-Gly-Pro-AMC; conditions: recombinant human DPP9
T2 construct: purchased R&D Systems
T2 sequence (Q86TI2 whole entry): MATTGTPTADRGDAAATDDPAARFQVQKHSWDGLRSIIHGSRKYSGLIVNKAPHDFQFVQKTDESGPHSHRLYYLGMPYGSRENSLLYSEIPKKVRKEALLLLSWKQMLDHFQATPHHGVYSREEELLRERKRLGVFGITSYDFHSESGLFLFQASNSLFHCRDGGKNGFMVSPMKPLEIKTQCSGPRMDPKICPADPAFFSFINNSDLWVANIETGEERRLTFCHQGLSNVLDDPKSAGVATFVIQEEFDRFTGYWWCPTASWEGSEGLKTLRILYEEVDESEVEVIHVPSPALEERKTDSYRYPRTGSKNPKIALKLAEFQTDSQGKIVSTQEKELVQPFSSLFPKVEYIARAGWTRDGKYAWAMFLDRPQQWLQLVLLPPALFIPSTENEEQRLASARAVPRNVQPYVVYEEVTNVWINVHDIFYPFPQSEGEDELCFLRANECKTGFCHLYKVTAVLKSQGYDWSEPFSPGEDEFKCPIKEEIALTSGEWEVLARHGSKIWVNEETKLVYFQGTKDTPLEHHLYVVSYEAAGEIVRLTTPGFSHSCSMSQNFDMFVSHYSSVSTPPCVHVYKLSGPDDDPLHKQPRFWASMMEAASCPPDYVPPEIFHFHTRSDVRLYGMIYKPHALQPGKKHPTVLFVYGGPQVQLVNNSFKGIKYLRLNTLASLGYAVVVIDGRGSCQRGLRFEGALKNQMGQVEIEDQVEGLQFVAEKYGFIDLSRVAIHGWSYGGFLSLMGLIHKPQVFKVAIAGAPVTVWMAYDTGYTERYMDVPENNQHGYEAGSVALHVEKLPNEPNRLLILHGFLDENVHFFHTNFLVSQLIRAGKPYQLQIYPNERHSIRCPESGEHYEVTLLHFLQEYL
In short: as §1

[3] = biological target: T3, recombinant human PREP (Homo sapiens, UniProt P48147); assay: PREP inhibition, fluorogenic substrate Z-Gly-Pro-AMC; conditions: Inhibitory Activity (IC50, nM) PREP, recombinant human PREP
T3 construct: purchased R&D System
T3 sequence (P48147 1-710): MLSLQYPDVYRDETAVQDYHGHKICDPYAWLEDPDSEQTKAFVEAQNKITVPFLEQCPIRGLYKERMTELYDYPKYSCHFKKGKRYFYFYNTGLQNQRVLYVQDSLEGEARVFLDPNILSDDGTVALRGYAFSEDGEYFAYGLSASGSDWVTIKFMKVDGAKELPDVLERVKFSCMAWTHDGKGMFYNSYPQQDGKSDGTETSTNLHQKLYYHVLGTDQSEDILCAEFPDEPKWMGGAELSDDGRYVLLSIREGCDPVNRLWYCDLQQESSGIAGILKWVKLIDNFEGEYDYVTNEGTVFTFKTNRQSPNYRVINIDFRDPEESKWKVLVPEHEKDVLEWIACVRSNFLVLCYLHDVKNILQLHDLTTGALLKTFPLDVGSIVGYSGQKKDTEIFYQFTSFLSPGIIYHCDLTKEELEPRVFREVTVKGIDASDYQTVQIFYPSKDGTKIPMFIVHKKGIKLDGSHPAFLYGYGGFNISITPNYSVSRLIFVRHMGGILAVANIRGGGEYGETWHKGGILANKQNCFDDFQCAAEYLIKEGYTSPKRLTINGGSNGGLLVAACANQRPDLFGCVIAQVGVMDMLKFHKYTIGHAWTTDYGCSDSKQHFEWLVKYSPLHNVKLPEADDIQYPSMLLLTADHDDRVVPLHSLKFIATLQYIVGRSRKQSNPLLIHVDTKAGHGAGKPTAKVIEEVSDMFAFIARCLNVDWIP
In short: as §1

[4] = biological target: DPP4 (Homo sapiens, UniProt P27487); assay: DPP4 inhibition, fluorogenic substrate H-Gly-Pro-AMC; design: purchased R&D Systems; conditions: recombinant human DPP4
DPP4, sequence (P27487 whole entry): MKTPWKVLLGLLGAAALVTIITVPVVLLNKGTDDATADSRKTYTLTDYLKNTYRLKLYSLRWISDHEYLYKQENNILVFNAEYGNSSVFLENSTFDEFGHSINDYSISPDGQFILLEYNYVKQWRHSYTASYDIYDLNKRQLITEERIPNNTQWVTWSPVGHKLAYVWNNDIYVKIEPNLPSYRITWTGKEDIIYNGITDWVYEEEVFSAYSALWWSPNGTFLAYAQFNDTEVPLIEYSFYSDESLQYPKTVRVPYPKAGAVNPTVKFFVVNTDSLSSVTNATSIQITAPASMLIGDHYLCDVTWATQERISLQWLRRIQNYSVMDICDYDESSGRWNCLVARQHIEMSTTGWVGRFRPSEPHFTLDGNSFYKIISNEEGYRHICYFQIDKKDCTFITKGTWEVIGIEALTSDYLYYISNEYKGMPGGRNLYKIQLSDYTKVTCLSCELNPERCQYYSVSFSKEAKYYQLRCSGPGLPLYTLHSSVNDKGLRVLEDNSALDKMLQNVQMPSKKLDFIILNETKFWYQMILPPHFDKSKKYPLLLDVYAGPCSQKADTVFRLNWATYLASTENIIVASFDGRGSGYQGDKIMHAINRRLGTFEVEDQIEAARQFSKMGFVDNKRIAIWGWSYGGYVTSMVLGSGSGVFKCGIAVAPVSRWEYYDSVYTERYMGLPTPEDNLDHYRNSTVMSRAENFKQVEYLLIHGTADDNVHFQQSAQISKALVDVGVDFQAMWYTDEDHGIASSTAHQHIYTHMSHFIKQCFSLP

[5] = biological target: T4, Recombinant human FAP (Homo sapiens, UniProt Q12884); assay: FAP FRET assay, FGF21-sequence FRET peptide substrate; conditions: FRET peptide with human FGF21 sequence, 6 μM, 37° C.
T4 construct: purchased R&D systems
T4 sequence (Q12884 1-760): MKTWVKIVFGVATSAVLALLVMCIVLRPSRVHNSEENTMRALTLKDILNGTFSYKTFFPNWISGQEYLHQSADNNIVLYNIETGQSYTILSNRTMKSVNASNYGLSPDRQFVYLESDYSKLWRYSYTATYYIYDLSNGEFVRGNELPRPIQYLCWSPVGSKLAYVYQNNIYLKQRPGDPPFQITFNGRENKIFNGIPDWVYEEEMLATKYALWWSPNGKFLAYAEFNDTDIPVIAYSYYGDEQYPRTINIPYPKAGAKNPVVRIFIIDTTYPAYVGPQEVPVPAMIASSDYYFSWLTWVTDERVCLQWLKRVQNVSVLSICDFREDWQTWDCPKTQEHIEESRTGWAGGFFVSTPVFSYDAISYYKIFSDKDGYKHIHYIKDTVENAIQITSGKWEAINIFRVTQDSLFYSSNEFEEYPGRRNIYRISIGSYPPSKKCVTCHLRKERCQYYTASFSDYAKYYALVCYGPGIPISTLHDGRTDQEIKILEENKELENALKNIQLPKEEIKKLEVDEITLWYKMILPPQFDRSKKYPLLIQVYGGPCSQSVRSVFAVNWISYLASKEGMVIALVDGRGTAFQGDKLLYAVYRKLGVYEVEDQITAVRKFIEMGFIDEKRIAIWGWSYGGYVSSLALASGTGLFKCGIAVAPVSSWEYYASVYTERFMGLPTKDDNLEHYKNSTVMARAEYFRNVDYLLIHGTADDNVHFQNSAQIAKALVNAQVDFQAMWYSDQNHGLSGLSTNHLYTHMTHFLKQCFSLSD
In short: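 FRET peptide bearing human FGF21 sequence (6 μM final) cleaved by 10 ng recombinant human FAP at 37° C in HEPES pH 7.2 buffer with NaCl, BSA and EDTA, DMSO up to 0.1%. Signal-rate decrease versus uninhibited control fitted to a four-variable logistic model for IC50.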

| Structure (SMILES) | IC50 [1] | IC50 [2] | IC50 [3] | IC50 [4] | IC50 [5] |
| --- | --- | --- | --- | --- | --- |
| N#C[C@@H]1C[C@H](F)CN1C(=O)CN1CC[C@H](Nc2ccc(C(=O)Nc3cccnc3)c3ncccc23)C1 [Example 295, N-(3-pyridyl)-5-[[(3S)-1-[2-oxo-2-[(2S,4S)-2-cyano-4-fluoro-pyrrolidin-1-yl]ethyl]pyrrolidin-3-yl]amino]quinoline-8-carboxamide] | 64.1 nM | 87.8 nM | 724 nM | 865 nM | 0.7 nM |
| CC(=O)Nc1ccc(N[C@H]2CCN(CC(=O)N3C[C@@H](F)C[C@H]3C#N)C2)c2cccnc12 [Example 297, N-[5-[[(3S)-1-[2-oxo-2-[(2S,4S)-2-cyano-4-fluoro-pyrrolidin-1-yl]ethyl]pyrrolidin-3-yl]amino]-8-quinolyl]acetamide] | 13.5 nM | 4200 nM | 4750 nM | 2810 nM | 2.9 nM |
| N#C[C@@H]1C[C@H](F)CN1C(=O)CN1CC[C@H](Nc2ccc(NC(=O)c3ccccc3)c3ncccc23)C1 [Example 298, N-[5-[[(3S)-1-[2-oxo-2-[(2S,4S)-2-cyano-4-fluoro-pyrrolidin-1-yl]ethyl]pyrrolidin-3-yl]amino]-8-quinolyl]benzamide] | 257 nM | 3070 nM | 6520 nM | 1860 nM | 2.1 nM |
| CCN(c1cnc2ccccc2c1)C1CCN(CC(=O)N2CCC[C@H]2C#N)CC1 [Example 302, (2S)-1-[2-[4-[ethyl(3-quinolyl)amino]-1-piperidyl]acetyl]pyrrolidine-2-carbonitrile] | 7350 nM | ≥ 100000 nM | 350 nM | ≥ 100000 nM | 22.2 nM |
| CCN(c1ccc2ncccc2c1)C1CCN(CC(=O)N2CCC[C@H]2C#N)CC1 [Example 303, (2S)-1-[2-[4-[ethyl(6-quinolyl)amino]-1-piperidyl]acetyl]pyrrolidine-2-carbonitrile] | 1940 nM | ≥ 100000 nM | 483 nM | ≥ 100000 nM | 9.2 nM |
| CCN(c1cnc2ccccc2c1)C1CCN(CC(=O)N2C[C@@H](F)C[C@H]2C#N)CC1 [Example 304, (2S,4S)-1-[2-[4-[ethyl(3-quinolyl)amino]-1-piperidyl]acetyl]-4-fluoro-pyrrolidine-2-carbonitrile] | 1050 nM | 7600 nM | 117 nM | 18800 nM | 8 nM |
| CCN(c1ccc2ncccc2c1)C1CCN(CC(=O)N2C[C@@H](F)C[C@H]2C#N)CC1 [Example 306, (2S,4S)-1-[2-[4-[ethyl(6-quinolyl)amino]-1-piperidyl]acetyl]-4-fluoro-pyrrolidine-2-carbonitrile] | 477 nM | 13200 nM | 129 nM | 24300 nM | 4.4 nM |
| N#C[C@@H]1C[C@H](F)CN1C(=O)CN1CCC(Nc2cc(Cl)c3ncccc3c2)CC1 [Example 376, (2S,4S)-1-[2-[4-[(8-chloro-6-quinolyl)amino]-1-piperidyl]acetyl]-4-fluoro-pyrrolidine-2-carbonitrile] | 226 nM | 4370 nM | 870 nM | 3510 nM | 7 nM |
| N#C[C@@H]1C[C@H](F)CN1C(=O)CN1CCC(Nc2ccc(C(=O)Nc3ccccc3)c3ncccc23)CC1 [Example 394, 5-[[1-[2-oxo-2-[(2S,4S)-2-cyano-4-fluoro-pyrrolidin-1-yl]ethyl]-4-piperidyl]amino]-N-phenyl-quinoline-8-carboxamide] | 361 nM | 1090 nM | 421 nM | 2540 nM | 1.3 nM |

Results, then the molecule that gave them:

| IC50 [1] | IC50 [2] | IC50 [3] | IC50 [4] | IC50 [5] | Structure (SMILES) |
| --- | --- | --- | --- | --- | --- |
| 142 nM | 10600 nM | 6440 nM | 15600 nM | 4.7 nM | CC(=O)Nc1ccc(N[C@H]2CCN(CC(=O)N3CCC[C@H]3C#N)C2)c2cccnc12 [Example 296, N-[5-[[(3S)-1-[2-oxo-2-[(2S)-2-cyanopyrrolidin-1-yl]ethyl]pyrrolidin-3-yl]amino]-8-quinolyl]acetamide] |
| 307 nM | 5200 nM | 4910 nM | 4570 nM | 7 nM | CCOc1ccc(NC2CCN(CC(=O)N3C[C@@H](F)C[C@H]3C#N)CC2)c2cccnc12 [Example 371, (2S,4S)-1-[2-[4-[(8-ethoxy-5-quinolyl)amino]-1-piperidyl]acetyl]-4-fluoro-pyrrolidine-2-carbonitrile] |
| 645 nM | 945 nM | 2000 nM | 1650 nM | 51.6 nM | N#C[C@@H]1C[C@H](F)CN1C(=O)CN1CCC(Nc2cccc3ncsc23)CC1 [Example 372, (2S,4S)-1-[2-[4-(1,3-benzothiazol-7-ylamino)-1-piperidyl]acetyl]-4-fluoro-pyrrolidine-2-carbonitrile] |
| 358 nM | 1320 nM | 1420 nM | 1520 nM | 5.9 nM | CNC(=O)c1ccc(NC2CCN(CC(=O)N3C[C@@H](F)C[C@H]3C#N)CC2)c2cccnc12 [Example 390, N-methyl-5-[[1-[2-oxo-2-[(2S,4S)-2-cyano-4-fluoro-pyrrolidin-1-yl]ethyl]-4-piperidyl]amino]quinoline-8-carboxamide] |
| 875 nM | 7420 nM | 1770 nM | 16400 nM | 3.1 nM | N#C[C@@H]1CCCN1C(=O)CN1CCC(Nc2ccc(C(=O)Nc3ccccc3)c3ncccc23)CC1 [Example 396, 5-[[1-[2-oxo-2-[(2S)-2-cyanopyrrolidin-1-yl]ethyl]-4-piperidyl]amino]-N-phenyl-quinoline-8-carboxamide] |
| 62.6 nM | 1860 nM | 1630 nM | 1320 nM | 7.5 nM | CC(=O)Nc1ccc(NC2CCN(CC(=O)N3C[C@@H](F)C[C@H]3C#N)CC2)c2cccnc12 [Example 409, N-[5-[[1-[2-oxo-2-[(2S,4S)-2-cyano-4-fluoro-pyrrolidin-1-yl]ethyl]-4-piperidyl]amino]-8-quinolyl]acetamide] |
| 2150 nM | 33800 nM | 1330 nM | 7240 nM | 7 nM | N#C[C@@H]1C[C@H](F)CN1C(=O)CN1CCC(Oc2cccc3ncccc23)CC1 [Example 425, (2S,4S)-4-fluoro-1-[2-[4-(5-quinolyloxy)-1-piperidyl]acetyl]pyrrolidine-2-carbonitrile] |
| 9400 nM | ≥ 100000 nM | 10800 nM | 54800 nM | 3.9 nM | COc1ccc2nccc(OC3CCN(CC(=O)N4CCC[C@H]4C#N)CC3)c2c1 [Example 426, (2S)-1-[2-[4-[(6-methoxy-4-quinolyl)oxy]-1-piperidyl]acetyl]pyrrolidine-2-carbonitrile] |
